Details: Liquid

CCOS(=O)(=O)[O-].CCn1cc[n+](C)c1 [1-ethyl-3-methylimidazolium ethyl sulfate]
mass density [kg/m3]
Details	100 kPa	2500 kPa	5000 kPa	10000 kPa	15000 kPa	20000 kPa	25000 kPa	30000 kPa	35000 kPa
283.15 K	1246.94	1247.9	1248.89	1250.85	1252.79	1254.73	1256.61	1258.47	1260.31
293.15 K	1239.88	1240.89	1241.91	1243.9	1245.88	1247.83	1249.76	1251.66	1253.57
298.15 K	1236.35	1237.35	1238.4	1240.44	1242.46	1244.44	1246.41	1248.35	1250.23
303.15 K	1232.72	1233.78	1234.83	1237	1239.02	1241.03	1243.02	1244.98	1246.84
313.15 K	1226.06	1227.11	1228.18	1230.3	1232.38	1234.45	1236.48	1238.47	1240.45
323.15 K	1219.19	1220.23	1221.36	1223.53	1225.69	1227.8	1229.93	1231.96	1233.91
333.15 K	1212.42	1213.53	1214.66	1216.87	1219.08	1221.24	1223.33	1225.42	1227.46

Source: the NIST ThermoML archive (doi:10.1016/j.jct.2007.11.011)
